Measured values taken from patent publication US12091402B2 (Avilar Therapeutics, Inc., priority 2021, dated 2024).
Like-named read-outs stand apart in the source and are kept apart here.

Legend:
[1] = biological target: T1, ASGPR receptor on the cell surface (HepG2 cells) (Homo sapiens, UniProt P07306); assay: Ternary complex formation assay (flow cytometry, HepG2); type: cell-based
T1 construct: host or cells: HepG2
T1 sequence (P07306 1-291): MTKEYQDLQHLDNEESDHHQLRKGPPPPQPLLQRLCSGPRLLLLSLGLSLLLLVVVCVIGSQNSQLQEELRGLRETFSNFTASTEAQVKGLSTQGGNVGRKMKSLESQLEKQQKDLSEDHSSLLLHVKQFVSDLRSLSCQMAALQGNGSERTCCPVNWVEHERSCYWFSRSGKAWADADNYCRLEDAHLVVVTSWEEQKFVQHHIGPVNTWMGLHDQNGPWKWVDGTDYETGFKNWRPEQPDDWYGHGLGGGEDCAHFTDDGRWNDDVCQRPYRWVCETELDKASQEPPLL
T1 sequence (P07307 1-311 partner): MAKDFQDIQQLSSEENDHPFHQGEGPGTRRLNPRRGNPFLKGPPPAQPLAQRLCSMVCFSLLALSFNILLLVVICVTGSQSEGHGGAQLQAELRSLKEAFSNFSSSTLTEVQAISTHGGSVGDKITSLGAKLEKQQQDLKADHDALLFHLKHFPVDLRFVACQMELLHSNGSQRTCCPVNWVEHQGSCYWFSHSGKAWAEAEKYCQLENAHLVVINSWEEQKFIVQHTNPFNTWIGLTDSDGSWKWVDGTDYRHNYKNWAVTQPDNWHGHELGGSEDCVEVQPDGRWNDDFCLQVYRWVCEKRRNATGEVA
Excerpt: The ternary complex formation assay is designed to identify the concentration of Degrader required to form a complex between the degrader, a constant concentration of fluorescently-labeled antibody and the ASGPR receptor on the cell surface. The peak mean fluorescence intensity (MFI) occurs at the optimal degrader concentration for ternary complex formation. Sub-optimal concentrations of degrader (too much or too little) results in fewer complexes formed and a reduced […].
Human IgG (Sigma-Aldrich, 14506) was covalently labeled with Alexa Fluor 488 using the Alexa Fluor™ 488 Protein Labeling Kit (Thermo Fisher, A10235) following the manufacturer's instructions. HepG2 cells (ATCC, HIB-8065) were cultured to about 70% confluence and harvested by trypsinization. Single cell suspensions of HepG2 cells were plated in 96 well plates at 1×10^5 cells/well in cell culture media (DMEM supplemented with […]) and placed at 4° C. For studies using human IgG, cells were incubated with 100 nM AF488-labeled anti-human IgG and serial dilutions of IgG-based degrader for 1 hour at 4° C. For studies using DNP, cells were incubated with 100 nM AF488-labeled polyclonal rabbit anti-dinitrophenyl (DNP) antibodies (ThermoFisher) and serial dilutions of DNP-based degrader for 1 hour at 4° C. After washing once with ice-cold PBS containing 0.1% BSA and 0.1% sodium azide, cells were resuspended in 150 uL PBS+0.1% BSA and cell-associated AF488 fluorescence was measured by flow cytometry using the iQue® Screener PLUS Flow Cytometer (IntelliCyt).

HepG2 cells = assay: Cellular uptake assay of AF488-labeled antibody (HepG2); type: cell-based; settings: HepG2 cells
Summary of the method: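 HepG2 cells given 100 nM AF488-labeled human IgG or DNP antibody plus serial dilutions of matching degrader (0.1% DMSO final), 6 h at 37° C. Methanol-fixed, DAPI-stained and imaged by high-content analysis. Value is the fraction of AF488-positive cells over total DAPI-counted cells.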

[2] = 100 nM AF488-labeled antibody, 37° C. for 6 hours, class symbols, read-out: Uptake Assay EC50

Structure (SMILES) | EC50 [1] [nM] | EC50 (HepG2 cells; [2]) [nM] | EC50 ([1]; read-out: Ternary Complex EC50) [nM] | EC50 (HepG2 cells; read-out: Uptake EC50) [nM] | EC50 ([1]; HepG2 cells, 100 nM AF488-labeled antibody, 1 hour at 4° C., class symbols, read-out: Ternary Complex EC50) [nM]
CC(C)C[C@@H]1NC(=O)[C@H](Cc2c[nH]cn2)NC(=O)[C@H](Cc2c[nH]c3ccccc23)NC(=O)[C@H](C)NC(=O)[C@@H]2CSSC[C@H](NC(=O)[C@H](Cc3c[nH]c4ccccc34)NC(=O)[C@H](C(C)C)NC(=O)[C@H](CC(C)C)NC(=O)[C@H](CCC(=O)O)NC(=O)CNC1=O)C(=O)N[C@@H]([C@@H](C)O)C(=O)N1CCC[C@@H]1C(=O)N1C[C@@H](NC(=O)COCC(=O)NC(COCCC(=O)NCCOCCOCCOCCOC[C@H]3OC[C@H](Nc4cncc(C(F)(F)F)n4)[C@@H](O)[C@H]3O)COCCC(=O)NCCOCCOCCOCCOC[C@H]3OC[C@H](Nc4cncc(C(F)(F)F)n4)[C@@H](O)[C@H]3O)C[C@H]1C(=O)N[C@@H](CC(=O)O)C(=O)N2 [Compound 43] | < 100 | < 100 | – | – | –
CC(C)C[C@@H]1NC(=O)[C@H](Cc2c[nH]cn2)NC(=O)[C@H](Cc2c[nH]c3ccccc23)NC(=O)[C@H](C)NC(=O)[C@@H](NC(=O)[C@@H](N)CC(=O)O)CSSC[C@@H](C(=O)N[C@H](C(N)=O)[C@@H](C)O)NC(=O)[C@H](Cc2c[nH]c3ccccc23)NC(=O)[C@H](C(C)C)NC(=O)[C@H](CC(C)C)NC(=O)[C@H](CCC(=O)NCCOCCOCCOCCOCCNC(=O)CCCc2cn(CCCCCC(=O)NC(COCCC(=O)NCCOCCOCCOCCOC[C@@]34CO[C@@H](O3)[C@H](Nc3nc(Cl)ns3)[C@@H](O)[C@H]4O)COCCC(=O)NCCOCCOCCOCCOC[C@@]34CO[C@@H](O3)[C@H](Nc3nc(Cl)ns3)[C@@H](O)[C@H]4O)nn2)NC(=O)CNC1=O [Compound 3] | < 100 | 500 to 1000 | < 100 | < 100 | –
CC(C)C[C@@H]1NC(=O)[C@H](Cc2cnc[nH]2)NC(=O)[C@H](Cc2c[nH]c3ccccc23)NC(=O)[C@H](C)NC(=O)[C@@H]2CSSC[C@H](NC(=O)[C@H](Cc3c[nH]c4ccccc34)NC(=O)[C@H](C(C)C)NC(=O)[C@H](CC(C)C)NC(=O)[C@H](CCC(=O)O)NC(=O)CNC1=O)C(=O)N[C@@H]([C@@H](C)O)C(=O)N1CCC[C@@H]1C(=O)N1C[C@@H](NC(=O)COCCOCC(=O)NC(COCCC(=O)NCCOCCOCCOCCOC[C@H]3OC[C@H](Nc4nccc(C(F)(F)F)n4)[C@@H](O)[C@H]3O)COCCC(=O)NCCOCCOCCOCCOC[C@H]3OC[C@H](Nc4nccc(C(F)(F)F)n4)[C@@H](O)[C@H]3O)C[C@H]1C(=O)N[C@@H](CC(=O)O)C(=O)N2 [Compound 47] | – | < 100 | – | – | < 100
CC(C)C[C@@H]1NC(=O)[C@H](Cc2c[nH]cn2)NC(=O)[C@H](Cc2c[nH]c3ccccc23)NC(=O)[C@H](C)NC(=O)[C@@H]2CSSC[C@H](NC(=O)[C@H](Cc3c[nH]c4ccccc34)NC(=O)[C@H](C(C)C)NC(=O)[C@H](CC(C)C)NC(=O)[C@H](CCC(=O)O)NC(=O)CNC1=O)C(=O)N[C@@H]([C@@H](C)O)C(=O)N1CCC[C@@H]1C(=O)N1C[C@@H](NC(=O)CCOCCOCCOCCNC(=O)CCCc3cn(CCCCCC(=O)NC(COCCC(=O)NCCOCCOCCOCCOC[C@H]4OC[C@H](Nc5nccc(C(F)(F)F)n5)[C@@H](O)[C@H]4O)COCCC(=O)NCCOCCOCCOCCOC[C@H]4OC[C@H](Nc5nccc(C(F)(F)F)n5)[C@@H](O)[C@H]4O)nn3)C[C@H]1C(=O)N[C@@H](CC(=O)O)C(=O)N2 [Compound 11] | < 100 | < 100 | – | – | –
CC(C)C[C@@H]1NC(=O)[C@H](Cc2c[nH]cn2)NC(=O)[C@H](Cc2c[nH]c3ccccc23)NC(=O)[C@H](C)NC(=O)[C@@H]2CSSC[C@H](NC(=O)[C@H](Cc3c[nH]c4ccccc34)NC(=O)[C@H](C(C)C)NC(=O)[C@H](CC(C)C)NC(=O)[C@H](CCC(=O)O)NC(=O)CNC1=O)C(=O)N[C@@H]([C@@H](C)O)C(=O)N1CCC[C@@H]1C(=O)N1C[C@H](NC(=O)c3ccc(N4CCC(CN5CCN(C[C@H]6OC[C@H](Nc7cncc(C(F)(F)F)n7)[C@@H](O)[C@H]6O)CC5)CC4)cc3)C[C@H]1C(=O)N[C@@H](CC(=O)O)C(=O)N2 [Compound 93] | < 100 | – | – | < 100 | –
